Experimental data from ChEMBL document CHEMBL1201862, “PubChem BioAssay data set” (2004).
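Method: 48-hour compound exposure of cells in 96-well plates, five concentrations, linear interpolation of endpoints. GI50 = concentration required for 50% inhibition of growth.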 Activity calls are given as the source filed them. Cut-off read from the data, not from the text of the source: active = GI50 up to about 1.1 µM and inactive = higher.

Tests used:
Test in all cases: NCI tumour cell line growth inhibition, 48 h
[1] = test system: 786-0
[2] = test system: CAKI-1
[3] = test system: CCRF-CEM
[4] = test system: COLO 205
[5] = test system: HCC 2998
[6] = test system: HOP-62
[7] = test system: HT-29
[8] = test system: Hs-578T
[9] = test system: IGROV-1
[10] = test system: LOX IMVI
[11] = test system: MCF7
[12] = test system: MDA-MB-435
[13] = test system: Malme-3M
[14] = test system: PC-3
[15] = test system: SF-268
[16] = test system: SNB-19
[17] = test system: T47D
[18] = test system: UACC-62
[19] = test system: OVCAR-4

Measured: GI50

Cc1nc2cc(Cl)c(N)cc2[nH]1
inactive: [1] > 100 µM | [2] > 100 µM | [3] > 100 µM | [4] > 100 µM | [5] > 10 µM | [6] > 100 µM | [7] > 100 µM | [8] > 100 µM | [9] > 100 µM | [10] > 100 µM | [11] > 100 µM | [12] > 100 µM | [13] > 100 µM | [14] > 100 µM | [15] > 100 µM | [16] > 100 µM | [17] > 100 µM | [18] > 100 µM

C=CCn1c(-c2cc(C(C)(C)C)c(O)c(C(C)(C)C)c2)cs/c1=N\C(P(=O)(O)O)P(=O)(O)O
inactive: [1] 36.8 µM | [2] > 100 µM | [4] > 100 µM | [5] > 100 µM | [6] > 100 µM | [7] > 100 µM | [8] > 100 µM | [9] > 100 µM | [11] > 100 µM | [12] > 100 µM | [13] > 100 µM | [19] > 100 µM | [14] > 100 µM | [15] > 100 µM | [16] > 100 µM | [17] > 100 µM

COc1cc2ccc(C(C)NCC#N)cc2cc1OC (stereo not drawn)
inactive: [1] > 100 µM | [2] > 100 µM | [4] > 100 µM | [5] 36.4 µM | [6] > 100 µM | [7] 75.2 µM | [8] > 100 µM | [9] > 100 µM | [10] > 100 µM | [11] > 100 µM | [12] > 100 µM | [13] > 100 µM | [19] > 100 µM | [14] > 100 µM | [15] > 100 µM | [16] > 100 µM | [17] > 100 µM | [18] > 100 µM

Cc1c2c(n(CCc3ccccc3)c1C)NN=C(C#N)S2(=O)=O
inactive: [1] > 100 µM | [4] > 100 µM | [5] > 100 µM | [6] > 100 µM | [7] > 100 µM | [8] > 100 µM | [9] > 100 µM | [10] > 100 µM | [11] > 100 µM | [12] > 100 µM | [13] > 100 µM | [19] > 100 µM | [14] > 100 µM | [15] > 100 µM | [16] > 100 µM | [17] > 100 µM | [18] > 100 µM

CC(=O)OC1C2CCC3CC2C2(SCCS2)C31 (stereo not drawn)
inactive: [1] > 100 µM | [4] > 100 µM | [5] > 100 µM | [6] 87.7 µM | [7] > 100 µM | [8] > 100 µM | [9] > 100 µM | [10] > 100 µM | [11] > 100 µM | [12] > 100 µM | [13] > 100 µM | [19] > 100 µM | [14] > 100 µM | [15] > 100 µM | [16] > 100 µM | [17] > 100 µM | [18] > 100 µM

Ic1ccc2c(c1)N(c1ccccc1)c1cc([N-]c3ccc4nc5ccc(I)cc5[n+](-c5ccccc5)c4c3)ccc1N2
inactive: [1] > 100 µM | [2] > 100 µM | [3] 15 µM | [4] 16.2 µM | [5] 67.1 µM | [6] 41.3 µM | [7] 14.8 µM | [8] > 100 µM | [9] 43.8 µM | [11] 26.4 µM | [12] 31.4 µM | [13] 38 µM | [19] > 100 µM | [14] 55.7 µM | [15] > 100 µM | [16] > 100 µM | [17] 61.7 µM | [18] 69.3 µM

CCCCSC1=N/C(=C\c2ccccc2O)C(=O)N1
inactive: [1] 69.7 µM | [2] > 100 µM | [4] > 100 µM | [5] 53.2 µM | [6] > 100 µM | [7] 70.6 µM | [8] > 100 µM | [9] > 100 µM | [10] 84.3 µM | [11] 33.5 µM | [12] > 100 µM | [13] > 100 µM | [19] 66.1 µM | [14] 23.4 µM | [15] > 100 µM | [16] 77.8 µM | [17] 32.7 µM | [18] 44.3 µM

COc1ccc(C2=Nn3c(nc4sc5c(c4c3=O)CCCC5)SC2)cc1
inactive: [1] > 100 µM | [2] > 100 µM | [3] > 100 µM | [4] > 100 µM | [5] > 100 µM | [6] 49.8 µM | [7] > 100 µM | [8] 70.6 µM | [9] > 100 µM | [10] > 100 µM | [11] > 100 µM | [12] > 100 µM | [13] > 100 µM | [19] > 100 µM | [14] > 100 µM | [15] > 100 µM | [17] > 100 µM | [18] > 100 µM

Cn1nc2ccc([N+](=O)[O-])cc2[n+]1[O-]
inactive: [1] > 100 µM | [2] > 100 µM | [3] > 100 µM | [4] > 100 µM | [5] > 100 µM | [6] > 100 µM | [7] > 100 µM | [8] > 100 µM | [9] > 100 µM | [11] > 100 µM | [12] > 100 µM | [13] > 100 µM | [19] > 100 µM | [14] > 100 µM | [16] > 100 µM | [17] > 100 µM | [18] > 100 µM

COC(=O)c1ccccc1/C=C1/Cc2cccc(C)c2C1=O
inactive: [1] 36.2 µM | [2] 69.3 µM | [3] > 100 µM | [4] > 100 µM | [5] > 100 µM | [6] 31 µM | [7] > 100 µM | [8] 39.7 µM | [9] > 100 µM | [10] > 100 µM | [11] > 100 µM | [12] > 100 µM | [13] > 100 µM | [19] > 100 µM | [14] > 100 µM | [15] 73.1 µM | [17] 42.5 µM | [18] 52.2 µM

CC(=O)Oc1ccc(/C=C/C(=O)OCCCOC(=O)/C=C/c2ccc(OC(C)=O)c(OC(C)=O)c2)cc1OC(C)=O
inactive: [1] 93.1 µM | [2] > 100 µM | [4] > 100 µM | [5] > 100 µM | [6] 51.2 µM | [7] > 100 µM | [8] > 100 µM | [9] > 100 µM | [10] > 100 µM | [11] > 100 µM | [12] > 100 µM | [13] > 100 µM | [19] > 100 µM | [14] > 100 µM | [15] > 100 µM | [16] > 100 µM | [17] > 100 µM | [18] > 100 µM
